The CheMixHub drug solubility set

Assay: xn = mol fraction of the nth substance listed, in the solute-free solvent

O=C(O)c1cc([N+](=O)[O-])ccc1O + CO + O
solubility (g/100 g solution)
Details | 278.15 K | 283.15 K | 288.15 K | 293.15 K | 298.15 K | 303.15 K | 308.15 K | 313.15 K | 318.15 K | 323.15 K
x2 = 0.05881 | 0.117 | 0.173 | 0.235 | 0.287 | 0.359 | 0.429 | 0.505 | 0.603 | 0.726 | 0.877
x2 = 0.1233 | 0.41 | 0.537 | 0.709 | 0.886 | 1.08 | 1.29 | 1.53 | 1.79 | 2.1 | 2.45
x2 = 0.1942 | 1.03 | 1.3 | 1.61 | 2 | 2.42 | 2.83 | 3.35 | 3.9 | 4.5 | 5.22
x2 = 0.2727 | 2.03 | 2.54 | 3.13 | 3.79 | 4.57 | 5.28 | 6.22 | 7.27 | 8.39 | 9.67
x2 = 0.3599 | 4.15 | 4.74 | 5.63 | 6.73 | 7.94 | 9.14 | 10.4 | 11.7 | 13.1 | 14.6
x2 = 0.4576 | 7.29 | 8.14 | 9.16 | 10.4 | 11.9 | 13.4 | 15.2 | 17.1 | 19.2 | 21.5
x2 = 0.5675 | 9.53 | 10.8 | 12.5 | 14.2 | 15.9 | 17.6 | 19.5 | 21.5 | 23.6 | 25.8
x2 = 0.6923 | 11.6 | 12.9 | 14.7 | 17 | 19.2 | 21.1 | 23.1 | 25.2 | 27.2 | 29.4
x2 = 0.835 | 13.8 | 15.1 | 16.8 | 18.7 | 21.1 | 23.3 | 25.3 | 27.6 | 29.8 | 32.4

COC1=CC(=O)CC(C)C12Oc1c(Cl)c(OC)cc(OC)c1C2=O (stereo not drawn) + CC(C)=O + CC(C)O
solubility (g/100 g solution)
Details | 283.15 K | 288.15 K | 293.15 K | 298.15 K | 303.15 K | 308.15 K | 313.15 K | 318.15 K | 323.15 K
x2 = 0.1 | 0.176 | 0.236 | 0.261 | 0.31 | 0.375 | 0.463 | 0.602 | 0.688 | 0.843
x2 = 0.2 | 0.338 | 0.422 | 0.511 | 0.55 | 0.668 | 0.817 | 0.967 | 1.11 | 1.3
x2 = 0.3 | 0.587 | 0.663 | 0.787 | 0.871 | 1.04 | 1.22 | 1.41 | 1.64 | 1.96
x2 = 0.4 | 0.84 | 0.915 | 1.06 | 1.23 | 1.44 | 1.7 | 1.94 | 2.17 | 2.51
x2 = 0.5 | 1.23 | 1.4 | 1.5 | 1.62 | 1.85 | 2.16 | 2.51 | 2.8 | 3.19
x2 = 0.6 | 1.56 | 1.76 | 1.94 | 2.08 | 2.34 | 2.72 | 3.08 | 3.41 | 3.89
x2 = 0.7 | 1.81 | 2.09 | 2.35 | 2.55 | 2.87 | 3.3 | 3.65 | 4.05 | 4.58
x2 = 0.8 | 2.16 | 2.39 | 2.72 | 2.95 | 3.38 | 3.76 | 4.19 | 4.67 | 5.21
x2 = 0.9 | 2.56 | 2.71 | 3.08 | 3.33 | 3.78 | 4.3 | 4.68 | 5.15 | 5.53

Oc1ccc(Cl)c2cccnc12 + C1COCCO1 + CCO
solubility (g/100 g solution)
Details | 278.15 K | 283.15 K | 288.15 K | 293.15 K | 298.15 K | 303.15 K | 308.15 K | 313.15 K | 318.15 K | 323.15 K
x2 = 0.1156 | 2.02 | 2.27 | 2.73 | 3.17 | 3.66 | 4.34 | 5.1 | 5.96 | 7.04 | 8.35
x2 = 0.2585 | 3.35 | 3.86 | 4.46 | 5.19 | 6.15 | 7.28 | 8.38 | 9.82 | 11.4 | 13.3
x2 = 0.4396 | 4.92 | 5.68 | 6.53 | 7.56 | 8.72 | 10.3 | 11.9 | 13.8 | 15.9 | 18.2
x2 = 0.6765 | 6.81 | 7.83 | 8.96 | 10.3 | 11.8 | 13.8 | 15.8 | 17.9 | 20.5 | 23.3

O=C(O)c1cc([N+](=O)[O-])ccc1O + CC#N + O
solubility (g/100 g solution)
Details | 278.15 K | 283.15 K | 288.15 K | 293.15 K | 298.15 K | 303.15 K | 308.15 K | 313.15 K | 318.15 K | 323.15 K
x2 = 0.04651 | 0.16 | 0.194 | 0.238 | 0.291 | 0.357 | 0.446 | 0.552 | 0.685 | 0.838 | 1.03
x2 = 0.0989 | 0.399 | 0.59 | 0.782 | 0.967 | 1.18 | 1.42 | 1.71 | 2.02 | 2.34 | 2.73
x2 = 0.1583 | 1.06 | 1.33 | 1.68 | 2.11 | 2.54 | 3.11 | 3.71 | 4.38 | 5.16 | 6.05
x2 = 0.2264 | 2.36 | 2.8 | 3.34 | 4.03 | 4.74 | 5.57 | 6.57 | 7.63 | 8.9 | 10.3
x2 = 0.3051 | 3.97 | 4.82 | 5.77 | 6.86 | 8.19 | 9.58 | 11.1 | 12.7 | 14.5 | 16.6
x2 = 0.397 | 7.03 | 7.9 | 8.98 | 10.4 | 11.9 | 13.8 | 15.9 | 18.1 | 20.2 | 22.5
x2 = 0.506 | 9.09 | 10.3 | 11.8 | 13.6 | 15.5 | 17.5 | 19.6 | 21.8 | 23.9 | 26.2
x2 = 0.6372 | 10.7 | 11.8 | 13.5 | 15.5 | 17.8 | 19.9 | 21.9 | 24.7 | 26.9 | 28.9
x2 = 0.798 | 12 | 13.3 | 15 | 17.2 | 19.5 | 21.5 | 24.3 | 26.8 | 29.3 | 31.8

O=C(O)c1cc([N+](=O)[O-])ccc1O + CN(C)C=O + O
solubility (g/100 g solution)
Details | 278.15 K | 283.15 K | 288.15 K | 293.15 K | 298.15 K | 303.15 K | 308.15 K | 313.15 K | 318.15 K | 323.15 K
x2 = 0.02666 | 0.182 | 0.224 | 0.277 | 0.352 | 0.437 | 0.534 | 0.645 | 0.775 | 0.924 | 1.1
x2 = 0.05806 | 0.538 | 0.682 | 0.832 | 1 | 1.26 | 1.54 | 1.85 | 2.17 | 2.56 | 3.01
x2 = 0.09556 | 1.2 | 1.45 | 1.81 | 2.17 | 2.65 | 3.12 | 3.74 | 4.38 | 5.16 | 6.11
x2 = 0.1412 | 2.33 | 2.71 | 3.27 | 3.93 | 4.66 | 5.53 | 6.45 | 7.43 | 8.54 | 9.8
x2 = 0.1978 | 3.78 | 4.51 | 5.41 | 6.42 | 7.5 | 8.84 | 10.3 | 11.9 | 13.5 | 15.4
x2 = 0.27 | 6.74 | 7.37 | 8.61 | 10.2 | 11.7 | 13.4 | 15.2 | 17.2 | 19.3 | 21.5
x2 = 0.3652 | 10.9 | 11.7 | 12.9 | 14.8 | 16.9 | 19 | 21.2 | 23.5 | 26.2 | 29.4
x2 = 0.4965 | 14.7 | 15.3 | 16.7 | 19.3 | 21.5 | 24 | 26.1 | 29.3 | 32.3 | 35.7
x2 = 0.6893 | 16.7 | 17.7 | 19.4 | 21.5 | 23.8 | 26.6 | 29 | 31.8 | 35.4 | 38.8

O=C(O)c1ccc(C(=O)O)o1 + O + COCCOC
solubility (g/100 g solution)
Details | 303.15 K | 308.15 K | 313.15 K | 318.15 K | 323.15 K | 328.15 K | 333.15 K | 338.15 K | 343.15 K
x2 = 0.1 | 1.42 | 1.44 | 1.5 | 1.57 | 1.65 | 1.75 | 1.83 | 1.93 | 2.05
x2 = 0.2 | 2.73 | 2.79 | 2.9 | 3.02 | 3.16 | 3.31 | 3.48 | 3.7 | 3.94
x2 = 0.3 | 3.75 | 3.9 | 4.06 | 4.22 | 4.39 | 4.58 | 4.79 | 5.05 | 5.33
x2 = 0.4 | 4.61 | 4.81 | 5.03 | 5.24 | 5.47 | 5.78 | 6.11 | 6.45 | 6.82
x2 = 0.5 | 5.53 | 5.75 | 6.03 | 6.31 | 6.69 | 7.05 | 7.45 | 7.81 | 8.16
x2 = 0.6 | 6.14 | 6.36 | 6.59 | 6.86 | 7.15 | 7.49 | 7.86 | 8.22 | 8.61
x2 = 0.7 | 5.57 | 5.8 | 6.08 | 6.35 | 6.64 | 6.93 | 7.24 | 7.62 | 8.03
x2 = 0.8 | 4.68 | 4.88 | 5.09 | 5.35 | 5.55 | 5.83 | 6.13 | 6.48 | 6.86
x2 = 0.9 | 4.41 | 4.57 | 4.74 | 4.91 | 5.11 | 5.32 | 5.55 | 5.87 | 6.22

COC1=CC(=O)CC(C)C12Oc1c(Cl)c(OC)cc(OC)c1C2=O (stereo not drawn) + CCC(C)=O + CC(C)O
solubility (g/100 g solution)
Details | 283.15 K | 288.15 K | 293.15 K | 298.15 K | 303.15 K | 308.15 K | 313.15 K | 318.15 K | 323.15 K
x2 = 0.1 | 0.162 | 0.217 | 0.254 | 0.338 | 0.391 | 0.463 | 0.543 | 0.669 | 0.836
x2 = 0.2 | 0.326 | 0.374 | 0.44 | 0.557 | 0.606 | 0.77 | 0.892 | 1.05 | 1.26
x2 = 0.3 | 0.497 | 0.571 | 0.668 | 0.821 | 0.894 | 1.11 | 1.28 | 1.52 | 1.79
x2 = 0.4 | 0.684 | 0.779 | 0.9 | 1.11 | 1.23 | 1.44 | 1.68 | 1.93 | 2.25
x2 = 0.5 | 0.96 | 1.07 | 1.21 | 1.4 | 1.59 | 1.85 | 2.11 | 2.4 | 2.79
x2 = 0.6 | 1.22 | 1.37 | 1.51 | 1.75 | 1.98 | 2.26 | 2.58 | 2.92 | 3.41
x2 = 0.7 | 1.5 | 1.66 | 1.8 | 2.07 | 2.31 | 2.62 | 2.97 | 3.34 | 3.79
x2 = 0.8 | 1.7 | 1.87 | 2.04 | 2.37 | 2.6 | 2.94 | 3.29 | 3.75 | 4.16
x2 = 0.9 | 1.84 | 2.02 | 2.22 | 2.58 | 2.81 | 3.18 | 3.52 | 4 | 4.41
